Results published in US11773086B2, “Fungal modulators” (TRUSTEES OF BOSTON UNIVERSITY, priority 2020, dated 2023).

Tests used:
C. auris = assay: Sterol composition by LC-MS; assay type: cell-based, Candida auris; details: 18 hours
Excerpt: FIGS. 3A-3B, and 4A-4B illustrate azoffluxin increases fluconazole (FLC) bioavailability by inhibiting Cdr1-mediated efflux in C. auris, as described above. FIG. 3A depicts the relative abundance of specific sterols determined in C. auris after an 18-hour treatment with the respective compounds (⋅ indicates combo treatment concentrations) using LC-MS. Values are plotted relative to the internal standard of cholesterol and error bars indicate standard deviation between technical triplicates. Significance was determined by an unpaired student t-test of each condition to untreated, (*) indicates a p-value<0.05 and (**) indicates a p-value<0.01. FIG. 3B depicts the intracellular concentrations of FLC and azoffluxin measured after treatment for 1 hour (conditions as in FIG. 3A) Error bars indicate standard deviation between technical triplicates. Significance was determined by an unpaired student t-test, (**) indicates a p-value<0.01. FIG. 4A depicts the quantified relative expression of a panel of putative efflux pumps in C. auris Ci6684. Expression of CDR1 (B9J08_000164), MDR1 (B9J08_003981), CDR4-1 (B9J08_000479), CDR4-2 (B9J08_002451), SNQ2-1 (B9J08_001125), and SNQ2-2 (B9J08_004452) was measured by RT-qPCR. […] FIG. 4B depicts expression of CDR1 (B9J08_000164) and CDR4-1 (B9J08_000479) measured by quantitative real-time PCR (RT-qPCR). […]

293T cells = 293T cells grown without C. auris (luciferase signal); assay type: cell-based, human; details: 293T cells without C. auris, any treatment condition
Experimental: FIG. 10A depicts mammalian embryonic kidney (293T) cells expressing luciferase used to quantify mammalian cell growth in co-culture. Mammalian cells were seeded in 384-well plates in DMEM medium at 5×10^5 cells/mL overnight. After 24 hours the indicated concentration of compound (⋅ indicates combo treatment concentrations) was added along with 2.5×10^3 cells/mL of C. auris. Co-cultures were incubated for 48 hours at 37° C. and then the luminescence was measured as an output of mammalian cell growth. Error represents standard deviation between technical quadruplicates, (***) indicates a p-value<0.001 between 293T cells alone and co-culture growth for each condition. […] FIG. 10C depicts checkerboard assays performed as described in FIG. 2B with C. auris Clade IV isolate B11801. Relative growth was measured after 24 hours using OD600 and normalized to no-drug control wells (see color bar). The FICI calculated for each checkerboard is shown in the top right of each plot, with values<0.5 indicating synergy. FIG. 10D depicts kidney fungal burden (CFU) in mice from each treatment group (n=3) that had been infected with C. auris B11801. […] The significance of differences between combination treatment and treatment with each compound alone was determined by two-tailed unpaired student t-test, (***) p-value<0.001. […]

C=C(C)C[C@@H](O)COc1cc2c(cc1C1(c3cc4c(cc3OC[C@H](O)CC(=C)C)OCO4)C(=O)Nc3cc(F)ccc31)OCO2 [CMLD012336]
increase in 14-α-methyl-3,6-diol (C. auris; azoffluxin + low fluconazole vs low fluconazole alone): 4 fold | abundance of ergosterol, lanosterol, 14-α-methyl-3,6-diol (C. auris; azoffluxin alone vs untreated): No significant increases | mammalian cytotoxicity (293T cells): no detectable mammalian cytotoxicity
